The values that follow are results of earlier work, collected in patent publication US12427123B2, “Phenylephrine hydrochloride compositions and containers” (Endo Operations Limited, priority 2020, dated 2025).

Where two headings read alike, the source gives them in different places.

Assay in data set [1]: not given
The source holds these as a separate data set.

For the molecule `CNC[C@H](O)c1cccc(O)c1` [phenylephrine], under “solutions at pH 3.0 and pH 6.0”, the “optical stability (racemization as a function of pH)” value is listed as “optically stable”. The “dose excreted unchanged in the urine” value in data set [1] (in vivo) was 12%. The α-phase half-life in data set [1] (intravenous administration, 2-compartment model, distribution from central compartment) is reported as less than 5 min.
`CNC[C@H](O)c1cccc(O)c1.Cl` [Phenylephrine hydrochloride]: the solubility result is on record as “insoluble” (chloroform), “freely soluble” (ethanol), “insoluble” (ethyl ether) and “very soluble” (water).
